In US10221161B2, “Inhibitors of plasma kallikrein” (Kalvista Pharmaceuticals Limited, priority 2013, dated 2019) one finds IC50 data, which are given here for 27 compounds.

The target of one assay is Human plasma kallikrein (Homo sapiens (Human), UniProt P03952). As to the kind of experiment: Determination of the IC50 for plasma kallikrein (fluorogenic substrate H-DPro-Phe-Arg-AFC). The class given is biochemical. The following applies: 37° C., read-out: IC50 (human PKal). The protocol:
Determination of the IC50 Plasma Kallikrein Plasma kallikrein inhibitory activity in vitro was determined using standard published methods (see e.g. Johansen et al., Int. J. Tiss. […] Shori et al., Biochem. Pharmacol., 1992, 43, 1209; Stürzebecher et al., Biol. Chem. Hoppe-Seyler, 1992, 373, 1025). Human plasma kallikrein (Protogen) was incubated at 37° C. with the fluorogenic substrate […] and various concentrations of the test compound.

Another assay addresses Human KLK1 (Homo sapiens (Human), UniProt P06870). As to the kind of experiment: Determination of the IC50 for KLK1 (fluorogenic substrate H-DVal-Leu-Arg-AFC). The following applies: human KLK1, 37° C. The class given is biochemical. The method in brief: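 Inhibition of human KLK1 (Callbiochem) was measured in vitro following standard published methods. The enzyme was incubated at 37° C. with the fluorogenic substrate H-DVal-Leu-Arg-AFC across a range of test compound concentrations. Residual activity, taken as the initial reaction rate, was followed by […], and IC50 values were calculated.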

Human KLK1, sequence (P06870 25-262): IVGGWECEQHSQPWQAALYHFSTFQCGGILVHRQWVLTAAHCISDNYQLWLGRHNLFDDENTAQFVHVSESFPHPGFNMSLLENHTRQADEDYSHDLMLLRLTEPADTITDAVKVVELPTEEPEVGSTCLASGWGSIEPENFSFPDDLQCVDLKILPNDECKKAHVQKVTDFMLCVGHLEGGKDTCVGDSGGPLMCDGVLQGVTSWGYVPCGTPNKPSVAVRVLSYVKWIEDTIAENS
Human plasma kallikrein, sequence (P03952 391-638 limits assumed): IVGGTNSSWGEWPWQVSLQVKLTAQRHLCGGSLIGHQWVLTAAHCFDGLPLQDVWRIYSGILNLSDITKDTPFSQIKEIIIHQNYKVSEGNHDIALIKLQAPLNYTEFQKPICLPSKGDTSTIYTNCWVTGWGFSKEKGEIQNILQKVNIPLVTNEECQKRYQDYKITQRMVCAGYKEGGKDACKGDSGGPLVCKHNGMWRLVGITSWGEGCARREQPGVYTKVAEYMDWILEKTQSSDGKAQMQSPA
Human plasma kallikrein, sequence (P03952 20-390 partner limits assumed): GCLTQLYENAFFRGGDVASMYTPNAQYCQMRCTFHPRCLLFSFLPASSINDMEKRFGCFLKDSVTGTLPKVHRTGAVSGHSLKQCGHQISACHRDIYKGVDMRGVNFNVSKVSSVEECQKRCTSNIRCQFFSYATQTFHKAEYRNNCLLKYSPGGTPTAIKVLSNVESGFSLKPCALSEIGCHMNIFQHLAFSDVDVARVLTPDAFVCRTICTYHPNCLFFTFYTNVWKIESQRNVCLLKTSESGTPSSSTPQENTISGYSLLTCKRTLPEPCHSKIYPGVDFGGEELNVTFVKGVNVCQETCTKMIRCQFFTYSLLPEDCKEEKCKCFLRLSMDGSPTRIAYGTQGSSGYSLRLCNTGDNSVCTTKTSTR

For orientation: IC50 means the concentration that gives 50% inhibition. For `CC1CCN(c2ccc(Cc3cncc(C(=O)NCc4ccc5c(N)nccc5c4)c3)cn2)C1` (stereo not drawn) [Example 61, N-[(1-Aminoisoquinolin-6-yl)methyl]-5-{[6-(3-methylpyrrolidin-1-yl)pyridin-3-yl]methyl}pyridine-3-carboxamide], the figures for the IC50 on Human plasma kallikrein and against Human KLK1 were 137 nM and 6550 nM, respectively.
Regarding `COC1CCN(c2ccc(Cc3cncc(C(=O)NCc4ccc5c(N)nccc5c4)c3)cn2)C1` (stereo not drawn) [Example 62, N-[(1-Aminoisoquinolin-6-yl)methyl]-5-{[6-(3-methoxypyrrolidin-1-yl)pyridin-3-yl]methyl}pyridine-3-carboxamide], the IC50 at Human plasma kallikrein came out at 255 nM; against Human KLK1 it was 8890 nM.
In the same order, the values of `Nc1nccc2cc(CNC(=O)c3cncc(Cc4ccc(N5CCOCC5)nc4)c3)ccc12` [Example 63, N-[(1-Aminoisoquinolin-6-yl)methyl]-5-{[6-(morpholin-4-yl)pyridin-3-yl]methyl}pyridine-3-carboxamide] are 432 nM and greater than 10000 nM.
`CN1CCN(c2ccc(Cc3cncc(C(=O)NCc4ccc5c(N)nccc5c4)c3)cn2)CC1` [Example 64, N-[(1-Aminoisoquinolin-6-yl)methyl]-5-{[6-(4-methylpiperazin-1-yl)pyridin-3-yl]methyl}pyridine-3-carboxamide]: the IC50 on Human plasma kallikrein is 610 nM; on Human KLK1, 5340 nM.
With `CC1(C)CCCN1c1ccc(Cc2cncc(C(=O)NCc3ccc4c(N)nccc4c3)c2)cn1` [Example 65, N-[(1-Aminoisoquinolin-6-yl)methyl]-5-{[6-(2,2-dimethylpyrrolidin-1-yl)pyridin-3-yl]methyl}pyridine-3-carboxamide], the IC50 on Human plasma kallikrein was 131 nM; at Human KLK1 it was greater than 10000 nM.
In the same order, the values of `CCN(CC)c1ccc(Cc2cncc(C(=O)NCc3ccc4c(N)nccc4c3)c2)cn1` [Example 66, N-[(1-Aminoisoquinolin-6-yl)methyl]-5-{[6-(diethylamino)pyridin-3-yl]methyl}pyridine-3-carboxamide] are 52.7 nM and 5850 nM.
In the case of `Nc1nccc2cc(CNC(=O)c3cncc(Cc4ccc(N5CCCC5CO)nc4)c3)ccc12` (stereo not drawn) [Example 67, N-[(1-Aminoisoquinolin-6-yl)methyl]-5-({6-[2-(hydroxymethyl)pyrrolidin-1-yl]pyridin-3-yl}methyl)pyridine-3-carboxamide], the IC50 at Human plasma kallikrein was found to be 73.3 nM; at Human KLK1, 5150 nM.
In the same order, the values of `CC(C)Oc1ccc(Cc2cncc(C(=O)NCc3ccc4c(N)nccc4c3)c2)cn1` [Example 70, N-[(1-Aminoisoquinolin-6-yl)methyl]-5-[(6-isopropoxypyridin-3-yl)methyl]pyridine-3-carboxamide] are 1740 nM and greater than 10000 nM.
With `Nc1nccc2cc(CNC(=O)c3cncc(Cc4ccc(N5CCC(CO)C5)nc4)c3)ccc12` (stereo not drawn) [Example 71, N-[(1-Aminoisoquinolin-6-yl)methyl]-5-({6-[3-(hydroxymethyl)pyrrolidin-1-yl]pyridin-3-yl}methyl)pyridine-3-carboxamide], the IC50 stood at 306 nM at Human plasma kallikrein and 3950 nM against Human KLK1.
Regarding `CCOC(=O)C1CCN(c2ccc(Cc3cncc(C(=O)NCc4ccc5c(N)nccc5c4)c3)cn2)C1` (stereo not drawn) [Example 72, Ethyl 1-{5-[(5-{[(1-aminoisoquinolin-6-yl)methyl]carbamoyl}pyridin-3-yl)methyl]pyridin-2-yl}pyrrolidine-3-carboxylate], the IC50 at Human plasma kallikrein amounted to 860 nM; against Human KLK1, 3620 nM.
In the same order, the values of `CC(C)N(C)c1ccc(Cc2cncc(C(=O)NCc3ccc4c(N)nccc4c3)c2)cn1` [Example 73, N-[(1-Aminoisoquinolin-6-yl)methyl]-5-({6-[isopropyl(methyl)amino]pyridin-3-yl}methyl)pyridine-3-carboxamide] are 51.1 nM and 6690 nM.
Consider `CC1(C)CCN(c2ccc(Cc3cncc(C(=O)NCc4ccc5c(N)nccc5c4)c3)cn2)C1` [Example 74, N-[(1-Aminoisoquinolin-6-yl)methyl]-5-{[6-(3,3-dimethylpyrrolidin-1-yl)pyridin-3-yl]methyl}pyridine-3-carboxamide], for which the IC50 is 83.1 nM at Human plasma kallikrein and greater than 10000 nM against Human KLK1.
In the same order, the values of `Nc1nccc2cc(CNC(=O)c3cncc(Cc4ccc(N5CCC(C(=O)O)C5)nc4)c3)ccc12` (stereo not drawn) [Example 75, 1-{5-[(5-{[(1-Aminoisoquinolin-6-yl)methyl]carbamoyl}pyridin-3-yl)methyl]pyridin-2-yl}pyrrolidine-3-carboxylic acid] are 6120 nM and greater than 10000 nM.
In the same order, the values of `Nc1nccc2cc(CNC(=O)c3cncc(Cc4ccnc(N5CCCC5=O)c4)c3)ccc12` [Example 76, N-[(1-Aminoisoquinolin-6-yl)methyl]-5-{[2-(2-oxopyrrolidin-1-yl)pyridin-4-yl]methyl}pyridine-3-carboxamide] are 242 nM and 3750 nM.
As to `Nc1nccc2cc(CNC(=O)c3cncc(Cc4ccnc(N5CCCC5)c4)c3)ccc12` [Example 77, N-[(1-Aminoisoquinolin-6-yl)methyl]-5-{[2-(pyrrolidin-1-yl)pyridin-4-yl]methyl}pyridine-3-carboxamide], the IC50 worked out at 37.7 nM at Human plasma kallikrein and 4800 nM against Human KLK1.
Take `Nc1nccc2cc(CNC(=O)c3cncc(Cc4ccnc(N5CCCCC5)c4)c3)ccc12` [Example 78, N-[(1-Aminoisoquinolin-6-yl)methyl]-5-{[2-(piperidin-1-yl)pyridin-4-yl]methyl}pyridine-3-carboxamide]: the IC50 was 164 nM on Human plasma kallikrein and 6930 nM against Human KLK1.
In the same order, the values of `CC1CCCN1c1cc(Cc2cncc(C(=O)NCc3ccc4c(N)nccc4c3)c2)ccn1` (stereo not drawn) [Example 79, N-[(1-Aminoisoquinolin-6-yl)methyl]-5-{[2-(2-methylpyrrolidin-1-yl)pyridin-4-yl]methyl}pyridine-3-carboxamide] are 155 nM and 7140 nM.
Consider `Nc1nccc2cc(CNC(=O)c3cncc(Cc4ccnc(N5CCC(F)(F)C5)c4)c3)ccc12` [Example 80, N-[(1-Aminoisoquinolin-6-yl)methyl]-5-{[2-(3,3-difluoropyrrolidin-1-yl)pyridin-4-yl]methyl}pyridine-3-carboxamide], for which the IC50 on Human plasma kallikrein is 88.5 nM; against Human KLK1, 7550 nM.
The matching figures for `Nc1nccc2cc(CNC(=O)c3cncc(Cc4ccnc(N5CCC(O)C5)c4)c3)ccc12` (stereo not drawn) [Example 81, N-[(1-Aminoisoquinolin-6-yl)methyl]-5-{[2-(3-hydroxypyrrolidin-1-yl)pyridin-4-yl]methyl}pyridine-3-carboxamide]: 674 nM and 9570 nM.
Take `Nc1nccc2cc(CNC(=O)c3cncc(Cc4ccnc(N5CCC(F)C5)c4)c3)ccc12` (stereo not drawn) [Example 82, N-[(1-Aminoisoquinolin-6-yl)methyl]-5-{[2-(3-fluoropyrrolidin-1-yl)pyridin-4-yl]methyl}pyridine-3-carboxamide]: the IC50 at Human plasma kallikrein worked out at 67.8 nM; on Human KLK1, 4000 nM.
Regarding `CC1CCN(c2cc(Cc3cncc(C(=O)NCc4ccc5c(N)nccc5c4)c3)ccn2)C1` (stereo not drawn) [Example 83, N-[(1-Aminoisoquinolin-6-yl)methyl]-5-{[2-(3-methylpyrrolidin-1-yl)pyridin-4-yl]methyl}pyridine-3-carboxamide], the figures for the IC50 at Human plasma kallikrein and against Human KLK1 were 106 nM and 2870 nM, respectively.
Regarding `CC1(C)CCCN1c1cc(Cc2cncc(C(=O)NCc3ccc4c(N)nccc4c3)c2)ccn1` [Example 84, N-[(1-Aminoisoquinolin-6-yl)methyl]-5-{[2-(2,2-dimethylpyrrolidin-1-yl)pyridin-4-yl]methyl}pyridine-3-carboxamide], the results for the IC50 on Human plasma kallikrein and at Human KLK1 were 683 nM and 10700 nM, respectively.
The matching figures for `Nc1nccc2cc(CNC(=O)c3cncc(Cc4ccnc(N5CCOCC5)c4)c3)ccc12` [Example 85, N-[(1-Aminoisoquinolin-6-yl)methyl]-5-{[2-(morpholin-4-yl)pyridin-4-yl]methyl}pyridine-3-carboxamide]: 1670 nM and 8540 nM.
As to `CN1CCN(c2cc(Cc3cncc(C(=O)NCc4ccc5c(N)nccc5c4)c3)ccn2)CC1` [Example 86, N-[(1-Aminoisoquinolin-6-yl)methyl]-5-{[2-(4-methylpiperazin-1-yl)pyridin-4-yl]methyl}pyridine-3-carboxamide], the IC50 amounted to 395 nM at Human plasma kallikrein and 4460 nM on Human KLK1.
As for `CCN(CC)c1cc(Cc2cncc(C(=O)NCc3ccc4c(N)nccc4c3)c2)ccn1` [Example 87, N-[(1-Aminoisoquinolin-6-yl)methyl]-5-{[2-(diethylamino)pyridin-4-yl]methyl}pyridine-3-carboxamide], the IC50 came out at 358 nM at Human plasma kallikrein and 4980 nM on Human KLK1.
In the same order, the values of `COC1CCN(c2cc(Cc3cncc(C(=O)NCc4ccc5c(N)nccc5c4)c3)ccn2)C1` (stereo not drawn) [Example 88, N-[(1-Aminoisoquinolin-6-yl)methyl]-5-{[2-(3-methoxypyrrolidin-1-yl)pyridin-4-yl]methyl}pyridine-3-carboxamide] are 234 nM and 9850 nM.
`Nc1nccc2cc(CNC(=O)c3cncc(Cc4ccnc(N5CCCC5CO)c4)c3)ccc12` (stereo not drawn) [Example 89, N-[(1-Aminoisoquinolin-6-yl)methyl]-5-({2-[2-(hydroxymethyl)pyrrolidin-1-yl]pyridin-4-yl}methyl)pyridine-3-carboxamide]: the IC50 on Human plasma kallikrein was found to be 104 nM; against Human KLK1, 4840 nM.
